Test results from patent publication US20090035353A1 (priority 2001, published 2009).

Assays:
Format in all cases: cell-based, Staphylococcus aureus
[1] = system: production of TSST-1 by S. aureus (MN8)
[2] = system: TSST-1 production by S. aureus FRI-1169
[3] = system: TSST-1 production by S. aureus FRI-1187

| Compound | ELISA: TSST-1 ng/OD unit [1] | TSST-1 produced when compared to the control [1] | ELISA: TSST-1 ng/OD unit [2] | TSST-1 produced when compared to the control [2] | ELISA: TSST-1 ng/OD unit [3] | TSST-1 produced when compared to the control [3] |
| --- | --- | --- | --- | --- | --- | --- |
| Oc1c(Cl)cc(Cl)c(Cl)c1Cc1c(O)c(Cl)cc(Cl)c1Cl [Hexachlorophene, hexachlorophene] | 330 | significantly less TSST-1 |  |  |  |  |
| 4-hydroxydiphenyl methane [4-Hydroxydiphenyl-methane] | 785 |  |  |  |  |  |
| Oc1cc(Cl)ccc1Oc1ccc(Cl)cc1Cl [Triclosan, triclosan] | 129 | significantly less TSST-1 | 40 | less TSST-1 | 95 | less TSST-1 |
